# Tests used:
# TIMP2 and TIMP3 [1] = test: qRT-PCR of TIMP2 and TIMP3 mRNA; assay type: cell-based, human; settings: CAL27 and all the colon cancer cell lines, 56 μM 3 days
# Method: (§1) The number of cells that invaded the ECM was determined after 24 h. Data are expressed as percentage change in tumor invasion relative to that of DMSO-treated cells (n=3). (D) Wound healing by DMSO- and SPIR-treated HCT116, HT29, and CAL27 cells was compared. Data are calculated as the percentage change in distance of migration relative to that of DMSO-treated cells (n=3). […] Tumor xenografts and lung metastases were detected by bioluminescence imaging on day 25. Data are shown as the average total flux (photons/second)±standard deviation (n=8). (F) The lung metastases (arrows) were confirmed by examining lung tissue sections. * P≤0.05, ** P<0.01, *** P<0.005, **** P<0.0001.
# For qRT-PCR, total RNA was extracted from untreated or drug-treated tumor cells by using the RNA Clean & Concentrator (Zymo Research). All cDNA was generated by using the SuperScript VILO cDNA Synthesis kit (Life Technologies) and diluted 10-fold for analysis using the 7900HT Fast Real-time PCR System (Applied Biosystems). The data were calculated as the CT of target genes normalized to the CT of GAPDH of each sample. Primer sequences of the target genes were: MICA-F: 5′-[…]-3′, (SEQ ID NO: 14) MICA-R: 5′-[…]-[…]-3′, (SEQ ID NO: 15) MICB-F: 5′-[…]-3′, (SEQ ID NO: 16) MICB-R:5′-CCCTC-[…]-3′, (SEQ ID NO: 17), ULBP1-F:5′-[…]-3′, (SEQ ID NO: 18), ULBP1-R:5′-[…]-3′, (SEQ ID NO: 19), ULBP2-F:5′-[…]-3′, (SEQ ID NO: 20), ULBP2-R:5′-[…]-3′, (SEQ ID NO: 21), ULBP3-F:5′-[…]-TTCG-3′, (SEQ ID NO: 22), ULBP3-R:[…]-3′, (SEQ ID NO: 23), TIMP2-F:5′-[…]-[…]-3′, (SEQ ID NO: 24), TIMP2-R:[…]-3′, (SEQ ID NO: 25), TIMP3-F:5′-[…]-3′, (SEQ ID NO: 26), TIMP3-R:5′-[…]-[…]-3′ (SEQ ID NO: 27), GAPDH-F: 5′-[…]3′ (SEQ ID NO: 28), GAPDH-R: 5′-G-[…]-3′ (SEQ ID NO: 29). […] Differentially expressed transcripts were analyzed by ANOVA on Spotfire program.
# TIMP2 and TIMP3 [2] = test: TIMP2 and TIMP3 ELISA; assay type: cell-based, human; settings: HCT116, 56 μM 3 days
# [3] = system: DNA damage in HCT116 cells; test: comet assay; assay type: cell-based, human
# Method: Experiments were performed according to the manufacturer's instructions.
# RXR-gamma = RXR-gamma reporter assay; assay type: cell-based, human; settings: HCT116 cells
# Method: The Cignal RXR reporter assay system containing an RXR-gamma-responsive luciferase construct, which encodes the firefly luciferase reporter gene under the control of a minimal CMV promoter and tandem repeats of the RXR-gamma transcriptional response element, was purchased from Qiagen. The experiment was performed in HCT116 cells according to the manufacturer's instructions.
# [4] = system: NKG2DL (MICA-B, ULBP1-3) surface expression; test: flow cytometry of NKG2DL cell surface expression in cancer cell lines; assay type: cell-based, human
# Method: Data are representative of five independent experiments. […] Controls were stained with APC-conjugated anti-human Fc antibody alone without preincubation with NKG2D-Fc. Data are representative of three independent experiments. […] Results are representative of two independent experiments. […] (E) NKG2DL mRNA expression in the colon cancer cell lines was analyzed by qRT-PCR analysis. Data are normalized to GAPDH mRNA levels and are presented as fold-change relative to the expression in DMSO-treated cells (n=5). (F) Lentiviral-based luciferase reporter construct containing the putative ULBP2 promoter (−2415 to 0 bp from the transcription start site: 73 bp upstream of ATG) was transduced into the colon cancer cell lines. Positively transduced cells were selected by puromycin treatment (2 μg/ml) for 2 weeks. […] Data shown are expressed as fold-change relative to the luciferase activity observed in DMSO-treated cells (n=3). * P<0.05, ** P<0.01.
# Cell lines were stained with allophycocyanin-conjugated anti-MICA, anti-MICB, or anti-ULBP2 antibodies for 20 min at 4° C. For ULBP1 and ULBP3 staining, cells were first incubated with anti-ULBP1 and anti-ULBP3 antibodies and then with allophycocyanin-conjugated goat anti-mouse IgG antibody. To analyze total NKG2DL cell surface expression, cells were first incubated with human NKG2D-Fc for 20 min at 4° C. and then with allophycocyanin-conjugated mouse anti-human IgG (Fc) antibody. Cells were washed and analyzed on a C6 flow cytometer (Accuri). Data were analyzed using FlowJo software (TreeStar).
# [5] = system: HCT116, HT29, and CAL27 cells; test: wound-healing assay; assay type: cell-based, human; settings: HCT116, HT29, CAL27
# Method: as §1
# Confluent cell layers of CAL27 and HT29 cells with a 500 μm±50 μm gap were formed by using Ibidi culture inserts (RPI Corp.). Gap distances were measured at various times using a Nikon Eclipse Ti inverted microscope and NIS-Elements software (Nikon).
# HDAC = HDAC activity and HDAC3 mRNA after SPIR treatment; assay type: cell-based, human
# [6] = system: HT29 xenografts, lung metastasis; test: lung metastasis model using HT29 cells; assay type: in vivo, NSG mice; settings: i.p. twice a week for 3 weeks
# Method: as §1
# Luciferase-expressing HCT116 and HT29 cells were generated by lentiviral transduction of the cells with a CMV promoter-driven luciferase expression construct engineered from the pLL3.7 vector. […] Bioluminescence imaging was performed in a Xenogen imaging system to monitor tumor growth and the data were analyzed using Living Image software (Caliper LifeSciences). For the lung metastasis model using HT29 cells, lungs were harvested for bioluminescence imaging and then fixed in 10% neutral buffered formalin, paraffin embedded, sectioned, and stained with hematoxylin and eosin. A total of six lung sections at 100-μm intervals were collected for the observation of pulmonary nodules. […]
compound,measurement,setting,value
"CC(=O)S[C@@H]1CC2=CC(=O)CC[C@]2(C)[C@H]2CC[C@@]3(C)[C@@H](CC[C@@]34CCC(=O)O4)[C@H]12 [SPIR, spironolactone]",mRNA expression of TIMP2 and TIMP3,TIMP2 and TIMP3 [1],significantly upregulated
same,TIMP2 and TIMP3 in culture supernatant,TIMP2 and TIMP3 [2],corresponding increases
same,DNA breakage,"[3]; HCT116, 56 μM for 24 h",moderate decrease in DNA breakage
same,genotoxicity,[3]; conclusion from comet assays,not genotoxic
same,RXR-gamma-responsive luciferase activity,RXR-gamma; 24 h,significantly increased
same,RXR-gamma protein level,RXR-gamma; Western blot,did not change
same,ULBP2 expression,"[4]; HCT116, HT29, SW480, HCT15, SPIR 56 μM, 3 days, dose-dependent",significantly increased
same,"expression of other NK cell ligands (CD112, CD155, Fas, HLAs)","[4]; HCT116 cells, 56 μM, 3 days",no increase in expression
same,ULBP1 expression,[4]; SW480 and HCT15 cells,selective increase
same,MICA/B and ULBP3 expression,[4]; all SPIR-treated cells,enhancement
same,total NKG2DL expression by soluble NKG2D-Fc staining,[4]; colon cancer cell lines,Consistent NKG2DL upregulation
same,viability of the cells,"[4]; colon cancer cell lines, SPIR treatment",without affecting the viability of the cells
same,cell migration,[5],delayed cell migration
same,HDAC activities,HDAC; SW480 or HCT116 cells,did not inhibit HDAC activities
same,mRNA expression of HDAC3,HDAC; after SPIR treatment,no significant change
same,lung metastasis,[6],significant reduction of lung metastasis

# From US10286000B2, “Retinoid X receptor-gamma agonists and retinoid X receptor-alpha antagonists for treatment of cancer” (St. Jude Children's Research Hospital, Inc., priority 2013, dated 2019)
